Laboratory results as given in ChEMBL document CHEMBL1201862, “PubChem BioAssay data set” (2004).
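Cells were grown in 96-well plates and exposed to each compound for 48 hours at five concentrations; endpoints were interpolated linearly between bracketing concentrations, or set to the highest concentration if not reached. Abbreviation: GI50, concentration required for 50% inhibition of growth.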 Activity calls are given as the source filed them. Cut-off read from the data, not from the text of the source: active = GI50 up to about 1.1 µM and inactive = higher.

How the values were obtained:
Experiment in all cases: NCI tumour cell line growth inhibition, 48 h
DLD-1 = test system: DLD-1
DMS-114 = test system: DMS-114
DMS-273 = test system: DMS-273
HOP-18 = test system: HOP-18
KM-20L2 = test system: KM-20L2
M19-MEL = test system: M19-MEL
SNB-78 = test system: SNB-78
XF498 = test system: XF498
RXF 631 = test system: RXF 631

## C=CCSc1ncnc2c1ncn2C1OC(CO)C(O)C1O (centres undefined)
DLD-1
  GI50: 2.75 µM (inactive)
DMS-114
  GI50: 11.4 µM (inactive)
DMS-273
  GI50: 11.7 µM (inactive)
HOP-18
  GI50: > 100 µM (inactive)
KM-20L2
  GI50: 55.7 µM (inactive)
M19-MEL
  GI50: > 100 µM (inactive)
SNB-78
  GI50: > 100 µM (inactive)
XF498
  GI50: > 100 µM (inactive)

## CCCCC(=O)OC[n+]1ccc2c(C)c3[nH]c4ccccc4c3c(C)c2c1
DLD-1
  GI50: 0.37 µM (active)
DMS-273
  GI50: 0.147 µM (active)
HOP-18
  GI50: 1.34 µM (inactive)
KM-20L2
  GI50: 0.687 µM (active)
M19-MEL
  GI50: 1.07 µM (active)
RXF 631
  GI50: 1.07 µM (active)
SNB-78
  GI50: 0.796 µM (active)

## COc1cc(/C=C/C(=O)c2sc(-n3nc(-c4ccccc4)cc3-c3ccccc3)nc2C)ccc1O
DLD-1
  GI50: > 100 µM (inactive)
DMS-114
  GI50: 5.35 µM (inactive)
DMS-273
  GI50: > 100 µM (inactive)
HOP-18
  GI50: 26.5 µM (inactive)
KM-20L2
  GI50: > 100 µM (inactive)
M19-MEL
  GI50: > 100 µM (inactive)
RXF 631
  GI50: > 100 µM (inactive)
SNB-78
  GI50: > 100 µM (inactive)

## COc1cc(OC)c2c(=O)c3cccc([N+](=O)[O-])c3n(C)c2c1
DMS-114
  GI50: 69.2 µM (inactive)
DMS-273
  GI50: 60.3 µM (inactive)
HOP-18
  GI50: < 0.01 µM (active)
KM-20L2
  GI50: > 100 µM (inactive)
RXF 631
  GI50: 34.5 µM (inactive)
SNB-78
  GI50: > 100 µM (inactive)
XF498
  GI50: > 100 µM (inactive)

## O=C1OC(O)c2cc3c(cc21)OCO3 (centres undefined)
DLD-1
  GI50: > 100 µM (inactive)
DMS-114
  GI50: > 100 µM (inactive)
DMS-273
  GI50: > 100 µM (inactive)
M19-MEL
  GI50: > 100 µM (inactive)
SNB-78
  GI50: > 100 µM (inactive)
XF498
  GI50: > 100 µM (inactive)

## CCOC(=O)c1cc2c3c(c(O)c(OC)c2s1)N(C(=O)c1cc2c4c(c(O)c(OC)c2s1)N(C(C)=O)CC4)CC3
DLD-1
  GI50: > 100 µM (inactive)
DMS-114
  GI50: > 100 µM (inactive)
DMS-273
  GI50: 61.8 µM (inactive)
HOP-18
  GI50: > 100 µM (inactive)
KM-20L2
  GI50: > 100 µM (inactive)
M19-MEL
  GI50: > 100 µM (inactive)
RXF 631
  GI50: 9.08 µM (inactive)
SNB-78
  GI50: > 100 µM (inactive)
XF498
  GI50: 32.1 µM (inactive)

## COc1cc(CC(=O)c2cc3c(cc2-c2ccccc2)OCO3)cc(OC)c1OC
DLD-1
  GI50: 81.1 µM (inactive)
DMS-114
  GI50: 16.6 µM (inactive)
DMS-273
  GI50: 40.2 µM (inactive)
HOP-18
  GI50: 16 µM (inactive)
KM-20L2
  GI50: 96.6 µM (inactive)
SNB-78
  GI50: 25.8 µM (inactive)
XF498
  GI50: 17.1 µM (inactive)

## Cc1ccc(-c2cc(-c3ccco3)nc(N)n2)o1
DMS-273
  GI50: > 100 µM (inactive)
KM-20L2
  GI50: > 100 µM (inactive)
SNB-78
  GI50: > 100 µM (inactive)
XF498
  GI50: > 100 µM (inactive)

## COc1cccc2c1C(=O)c1c(O)c3c(c(O)c1C2=O)C[C@@](O)(C(C)=O)C[C@@H]3OC1OC(C)C(O)C(N)C1Br (some centres undefined)
DLD-1
  GI50: 0.0259 µM (active)
DMS-114
  GI50: 0.0316 µM (active)
DMS-273
  GI50: 0.0078 µM (active)
HOP-18
  GI50: 0.0404 µM (active)
KM-20L2
  GI50: 0.232 µM (active)
M19-MEL
  GI50: 0.116 µM (active)
SNB-78
  GI50: 0.105 µM (active)
XF498
  GI50: 0.129 µM (active)

## Cc1c(C(=O)/C=C/C=C/c2ccccc2)[n+]([O-])c2ccccc2[n+]1[O-]
DLD-1
  GI50: 14.5 µM (inactive)
DMS-114
  GI50: 25.6 µM (inactive)
DMS-273
  GI50: 32.2 µM (inactive)
HOP-18
  GI50: 45.2 µM (inactive)
KM-20L2
  GI50: 38 µM (inactive)
M19-MEL
  GI50: 34.3 µM (inactive)
SNB-78
  GI50: 42 µM (inactive)
XF498
  GI50: 35 µM (inactive)

## CCOC(=O)C/N=c1\nc(SC)sc2c(C(=O)OCC)nc(Sc3ccccc3)n12
DLD-1
  GI50: 34.2 µM (inactive)
DMS-114
  GI50: 62.7 µM (inactive)
HOP-18
  GI50: > 100 µM (inactive)
KM-20L2
  GI50: > 100 µM (inactive)
M19-MEL
  GI50: 34 µM (inactive)
RXF 631
  GI50: 25.3 µM (inactive)
XF498
  GI50: 41.2 µM (inactive)

## Nc1nc2c3nc(Nc4ccccc4)sc3nc(=S)n2c2sc(Nc3ccccc3)nc12
DLD-1
  GI50: > 100 µM (inactive)
DMS-114
  GI50: 20.3 µM (inactive)
DMS-273
  GI50: > 100 µM (inactive)
HOP-18
  GI50: 36.1 µM (inactive)
KM-20L2
  GI50: > 100 µM (inactive)
M19-MEL
  GI50: 13.4 µM (inactive)
SNB-78
  GI50: 22.5 µM (inactive)
XF498
  GI50: 1.98 µM (inactive)

## CC1=C(C)C(=O)c2c(cc3c4ccccc4ccn23)C1=O
DLD-1
  GI50: > 100 µM (inactive)
DMS-114
  GI50: > 100 µM (inactive)
DMS-273
  GI50: > 100 µM (inactive)
HOP-18
  GI50: > 100 µM (inactive)
KM-20L2
  GI50: > 100 µM (inactive)
M19-MEL
  GI50: > 100 µM (inactive)
XF498
  GI50: 63.8 µM (inactive)

## CC(C)OC(=O)Nc1c([N+](=O)[O-])cc(C(F)(F)F)cc1[N+](=O)[O-]
DLD-1
  GI50: > 100 µM (inactive)
DMS-273
  GI50: > 100 µM (inactive)
HOP-18
  GI50: 21.6 µM (inactive)
KM-20L2
  GI50: > 100 µM (inactive)
SNB-78
  GI50: > 50 µM (inactive)
XF498
  GI50: 28.1 µM (inactive)

## CCCCC(C(=O)C(=O)Nc1ccccc1CC)C(=O)C(C)C (centres undefined)
DLD-1
  GI50: > 100 µM (inactive)
DMS-114
  GI50: > 100 µM (inactive)
DMS-273
  GI50: > 100 µM (inactive)
KM-20L2
  GI50: > 100 µM (inactive)
M19-MEL
  GI50: > 100 µM (inactive)
RXF 631
  GI50: > 100 µM (inactive)
SNB-78
  GI50: > 100 µM (inactive)
XF498
  GI50: > 100 µM (inactive)

## OC(c1ccccc1)(c1ccccc1)c1ccccn1
DLD-1
  GI50: > 100 µM (inactive)
DMS-114
  GI50: 72.9 µM (inactive)
DMS-273
  GI50: > 100 µM (inactive)
HOP-18
  GI50: > 100 µM (inactive)
KM-20L2
  GI50: > 100 µM (inactive)
M19-MEL
  GI50: > 100 µM (inactive)
RXF 631
  GI50: > 100 µM (inactive)
SNB-78
  GI50: > 100 µM (inactive)
XF498
  GI50: > 100 µM (inactive)

## Cc1cc2c(=O)cc(-c3ccc(O)cc3)oc2c(C(=O)O)c1C
DLD-1
  GI50: > 100 µM (inactive)
DMS-114
  GI50: > 100 µM (inactive)
DMS-273
  GI50: > 100 µM (inactive)
HOP-18
  GI50: > 100 µM (inactive)
KM-20L2
  GI50: > 100 µM (inactive)
M19-MEL
  GI50: > 100 µM (inactive)
SNB-78
  GI50: > 100 µM (inactive)
XF498
  GI50: > 100 µM (inactive)

## O=C(COc1ccc(/C=C/C(=O)c2ccc(Cl)cc2)cc1)Nc1c(Cl)cccc1Cl
DLD-1
  GI50: > 100 µM (inactive)
DMS-114
  GI50: 33.3 µM (inactive)
HOP-18
  GI50: > 100 µM (inactive)
KM-20L2
  GI50: > 100 µM (inactive)
M19-MEL
  GI50: > 100 µM (inactive)
RXF 631
  GI50: > 100 µM (inactive)
SNB-78
  GI50: 58.9 µM (inactive)

## [O-][S+](Cc1ccccc1)c1nc2ccccc2nc1-c1cccs1 (centres undefined)
DLD-1
  GI50: 11 µM (inactive)
DMS-114
  GI50: 2.5 µM (inactive)
DMS-273
  GI50: 9.59 µM (inactive)
HOP-18
  GI50: 15.9 µM (inactive)
M19-MEL
  GI50: 5.77 µM (inactive)
SNB-78
  GI50: 22 µM (inactive)
XF498
  GI50: 2.52 µM (inactive)

## N#CC1(C#N)C2C=CC(c3coc4cccc2c34)C1(C#N)C#N (centres undefined)
DLD-1
  GI50: 2.02 µM (inactive)
DMS-114
  GI50: 5.11 µM (inactive)
DMS-273
  GI50: 16.7 µM (inactive)
HOP-18
  GI50: 16.6 µM (inactive)
KM-20L2
  GI50: 18.5 µM (inactive)
M19-MEL
  GI50: 3.05 µM (inactive)
SNB-78
  GI50: 15.8 µM (inactive)
XF498
  GI50: 4.99 µM (inactive)

## C=C(CN(CC(=C)C(=O)c1ccccc1)C(C)(C)C)C(=O)c1ccccc1
DLD-1
  GI50: 2.9 µM (inactive)
DMS-114
  GI50: 16.9 µM (inactive)
DMS-273
  GI50: 16.7 µM (inactive)
HOP-18
  GI50: 5.42 µM (inactive)
KM-20L2
  GI50: 18.7 µM (inactive)
M19-MEL
  GI50: 15.7 µM (inactive)
SNB-78
  GI50: 25.5 µM (inactive)
XF498
  GI50: 6.58 µM (inactive)

## CC1(C)C(=O)C(O)=CC2C1=CCC1C2(C)C(=O)CC2(C)C(C(C)(O)C(=O)CC(O)C(C)(C)O)C(O)CC12C (centres undefined)
DLD-1
  GI50: 3.19 µM (inactive)
DMS-114
  GI50: 6.67 µM (inactive)
DMS-273
  GI50: 2.85 µM (inactive)
HOP-18
  GI50: 2.51 µM (inactive)
KM-20L2
  GI50: 3.33 µM (inactive)
M19-MEL
  GI50: 8.85 µM (inactive)
SNB-78
  GI50: 3.78 µM (inactive)
XF498
  GI50: 3.28 µM (inactive)

## CC/C(=C(\c1ccccc1)c1ccc(OCC[N+](C)(C)C)cc1)c1ccccc1 [TAMOXIFEN METHYL IODIDE]
DLD-1
  GI50: 15.6 µM (inactive)
DMS-114
  GI50: 9.12 µM (inactive)
DMS-273
  GI50: 6.4 µM (inactive)
HOP-18
  GI50: 13.1 µM (inactive)
KM-20L2
  GI50: 15.7 µM (inactive)
M19-MEL
  GI50: 11.6 µM (inactive)
RXF 631
  GI50: 19.6 µM (inactive)
SNB-78
  GI50: 12.2 µM (inactive)

## Cc1ccc2c(c1)-c1c3c(nn1C)-c1ccccc1SC3O2 (centres undefined)
DLD-1
  GI50: > 100 µM (inactive)
DMS-114
  GI50: 32.3 µM (inactive)
DMS-273
  GI50: 55.5 µM (inactive)
HOP-18
  GI50: 8.43 µM (inactive)
KM-20L2
  GI50: 87.7 µM (inactive)
M19-MEL
  GI50: 81.3 µM (inactive)
SNB-78
  GI50: > 100 µM (inactive)
XF498
  GI50: 23.4 µM (inactive)

## CCN(CC)c1ccc(Cl)c2c1C(O)(C(C)C)C2(C)C (centres undefined)
DLD-1
  GI50: 17.4 µM (inactive)
DMS-114
  GI50: 21.2 µM (inactive)
DMS-273
  GI50: 15.8 µM (inactive)
HOP-18
  GI50: 14 µM (inactive)
KM-20L2
  GI50: 14 µM (inactive)
M19-MEL
  GI50: 14.7 µM (inactive)
SNB-78
  GI50: 28.2 µM (inactive)

## CC(C)(C)C1=CC(=C(P(=O)(O)O)P(=O)(O)O)C=C(C(C)(C)C)C1=O
DLD-1
  GI50: > 50 µM (inactive)
DMS-114
  GI50: > 50 µM (inactive)
DMS-273
  GI50: > 50 µM (inactive)
HOP-18
  GI50: > 50 µM (inactive)
KM-20L2
  GI50: > 50 µM (inactive)
M19-MEL
  GI50: > 50 µM (inactive)
RXF 631
  GI50: > 50 µM (inactive)
SNB-78
  GI50: > 50 µM (inactive)
